According to patent US7635779B2, “Oxy substituted flavones as antihyperglycemic and antidyslipidemic agents” (Council of Scientific & Industrial Research, priority 2004, dated 2009):

Columns and labels:
Format in all cases: in vivo, mouse
Swiss mice [1] = assay: Maximal electroshock seizures (MES); details: 100 mg/kg p.o.; for Numbers of mice showed seizures/numbers of mice tested: 48 mAmp for 0.2 sec
Method: Control and treated mice (−60 min) were subjected to electric shock (48 mAmp for 0.2 sec) through pinna electrode.

Swiss mice [2] = assay: Barbiturate induced hypnosis (sleeping time); details: for Change in barbiturate induced hypnosis: 100 mg/kg p.o.; for Sleep-duration (MEAN ± SE): 100 mg/kg p.o. 30 min prior to Pentobarbitone 45 mg/kg i.p.
Method: Sleeping time is calculated by the duration between loss and regain of righting reflex following administration of Pentobarbitone (45 mg/kg, i.p.). 34 and 49 in the dose 100 mg/kg, p.o. was administered 30 min prior to Pentobarbitone.

Swiss mice [3] = assay: Gross behaviour: sensory responses (reflexes, hot plate nociceptive response); details: 100 mg/kg p.o.; for Nociceptive reaction time MEAN ± SE: hot plate 55° C.
Method: • i). Reflexes: Pinna, corneal and righting reflexes were tested [Normal (control), sluggish or absent] • ii). Nociceptive Response: Reaction time to nociceptive response was observed by hot plate analgesia meter (Columbus Instruments,USA). The cut-off period for thermal nociception (55° C.) to mice was 15 sec. Results • i). Reflexes: Corneal, pinna and righting reflexes were intact in 34 and 49 treated mice. • ii).

Swiss mice [4] = assay: Gross behaviour: autonomic responses; details: 100 mg/kg p.o.
Method: 34 and 49 (100 mg/kg, p.o.) was administered in forenoon. […] Piloerection: Erection of body hairs (+: present or −: absent). • ii). Salivation: Secretion of saliva is observed as dripping of saliva from mouth, which is scored as 1=mild, 2=moderate and 3=severe as compared to control (0=no dripping). • iii). Lachrymation: Secretion and discharge of tears observed as shedding of tears around the lower eyelid, which is scored as 1=mild, 2=moderate and 3=severe as compared to control (0=no shedding). • iv). Palpebral closure: Ptosis (drooping of upper eyelids) present or absent • v). Exopthalmos: Protrusion (bulging) of eye ball; present or absent • vi). Defaecation: scored as 1=mild, 2=moderate and 3=severe as compared to control • vii). Urination: scored as 1=mild, 2=moderate and 3=severe as compared to control Results

Swiss mice [5] = assay: Neuromuscular coordination (muscle tone, rota rod test); design: key to Muscle tone score (hind limb rigidity): 0=Flaccid; 1=Normal; 2=Rigid; details: for Effect on neuromuscular coordination as compared to control / Rota rod test-numbers of falls / Rota rod test-stay period at 1 h (MEAN ± SE): 100 mg/kg p.o.; for Rota rod test-stay period at 1 h (MEAN ± SE): test duration 2 min; for Muscle tone score (hind limb rigidity): resistance to passive flexion of hind-paw
Method: By resistance to passive flexion of each hind-paw
Score: 0=Flaccid, 1=Normal, 2=Rigid, • ii). Rota Rod Test
The period of stay on rotating rod (speed: 5 rotations/min; total duration of test 2 min) for each control and treated mice (−60 min) was recorded by Rotamex 4 (Columbus Instr., USA). The mice were trained to stay for period of 2 min on rotating rod and only trained mice were included in the study.

Change in barbiturate induced hypnosis (Swiss mice [2]) | Sleep-duration (MEAN ± SE) (Swiss mice [2]) | Corneal, pinna and righting reflexes (Swiss mice [3]) | Effect on nociceptive reaction time as compared to control (Swiss mice [3]) | Sensory responses (Swiss mice [3]) | Nociceptive reaction time MEAN ± SE (Swiss mice [3]; 30 min) | Nociceptive reaction time MEAN ± SE (Swiss mice [3]; 60 min) | Nociceptive reaction time MEAN ± SE (Swiss mice [3]; 90 min) | Nociceptive reaction time MEAN ± SE (Swiss mice [3]; 120 min) | Nociceptive reaction time MEAN ± SE (Swiss mice [3]; Pre-tt (0)) | Effect on autonomic responses (Swiss mice [4]) | SMILES | Anti-convulsant activity (Swiss mice [1]) | Numbers of mice showed seizures/numbers of mice tested (Swiss mice [1]) | Effect on neuromuscular coordination as compared to control (Swiss mice [5]) | Rota rod test-numbers of falls (Swiss mice [5]; 30 min) | Rota rod test-numbers of falls (Swiss mice [5]; 60 min) | Rota rod test-stay period at 1 h (MEAN ± SE) (Swiss mice [5]) | Rota rod test-numbers of falls (Swiss mice [5]; 90 min) | Rota rod test-numbers of falls (Swiss mice [5]; 180 min) | Rota rod test-numbers of falls (Swiss mice [5]; Pre-tt (0)) | also measured
did not show any significant change | 122.5 ± 16.7 min | intact | no significant effect | not affected | 4.84 ± 0.3 s | 4.30 ± 0.2 s | 3.52 ± 0.1 s | 3.08 ± 0.2 s | 3.52 ± 0.2 s | did not show any significant effect | CC(C)(C)NCC(O)COc1ccc2c(=O)cc(-c3cc(OCc4ccccc4)cc(OCc4ccccc4)c3)oc2c1 (stereo not drawn) [Compound 34, 7-(3-tert-Butylamino-2-hydroxy-propoxy)-3′,5′-dibenzyloxy-flavone] | did not show any significant anti-convulsant activity | 5/5 | did not show any significant effect | 0 | 1/8 | 111.87 ± 8.82 s | 0 | 0 | 0 | Muscle tone score (hind limb rigidity) (Swiss mice [5]): 1
did not show any significant change | 103.4 ± 15.27 min | intact | no significant effect | not affected | 4.66 ± 0.6 s | 4.10 ± 0.2 s | 3.66 ± 0.3 s | 3.45 ± 0.1 s | 4.61 ± 0.2 s | did not show any significant effect | CC(C)NCC(O)COc1ccc2c(=O)cc(-c3cc(O)cc(O)c3)oc2c1 (stereo not drawn) [Compound 49, 3′,5′-Dihydroxy-7-(2-hydroxy-3-iso-propylamino-propoxy)-flavone] | did not show any significant anti-convulsant activity | 5/5 | did not show any significant effect | 0 | 1/8 | 112.25 ± 7.75 s | 0 | 0 | 0 | Muscle tone score (hind limb rigidity) (Swiss mice [5]): 1
